Measurements: patent publication US8754067B2, “22-haloacetoxy-homopregnacalciferol analogs and their uses” (Wisconsin Alumni Research Foundation, priority 2010, dated 2014)

Assays:
HL-60 leukemia cells [1] = assay: Cell viability, HL-60 leukemia cells; type: cell-based, human; settings: four days growth, methylene blue; FIG. 4A/4B
Method: (§1) Various cell lines were plated, administered a range of drug concentrations one time, allowed to grow for four days and then the number of cells present counted and expressed as a percentage of those present in the vehicle control plates. […] The number of live cells was expressed as a percentage of the total present. Each assay was done in duplicate.

HL-60 leukemia cells [2] = assay: HL-60 differentiation (nitro blue tetrazolium reduction); type: cell-based, human; settings: FIG. 2
Method: The study drugs were dissolved in ethanol and the concentrations determined using UV spectrophotometry. Serial dilutions were prepared so that a range of drug concentrations could be tested without changing the final concentration of ethanol (≦0.2%) present in the cell cultures.
Human promyelocytic leukemia (HL60) cells were grown in RPMI-1640 medium containing 10% fetal bovine serum. The cells were incubated at 37° C. in the presence of 5% CO2.
HL60 cells were plated at 1.2×10^5 cells/ml. Eighteen hours after plating, cells in duplicate were treated with drug. Four days later, the cells were harvested and a nitro blue tetrazolium reduction assay was performed (Collins et al., 1979; J. Exp. Med. 149:969-974). The percentage of differentiated cells was determined by counting a total of 200 cells and recording the number that contained intracellular black-blue formazan deposits. Verification of differentiation to monocytic cells was determined by measuring phagocytic activity (data not shown).

DU-145 prostate cells = assay: Cell viability, DU-145 prostate cells; type: cell-based; settings: four days growth, methylene blue; FIG. 6A/6B
Method: as §1

[3] = test system: H-82 lung carcinoma cells; assay: Cell viability, H-82 lung carcinoma cells; type: cell-based; settings: four days growth, methylene blue; FIG. 5A/5B
Method: as §1

[4] = test system: bone calcium mobilization; assay: Bone calcium mobilization (serum calcium) in vitamin D-deficient rats; type: in vivo, rat; settings: vitamin D-deficient rats on 0.02% Ca diet, FIG. 7
Method: (§2) Male, weanling Sprague-Dawley rats were placed on Diet 11 (Suda et al, J. Nutr. 100:1049, 1970) (0.47% Ca)+AEK oil for one week followed by Diet 11 (0.02% Ca)+AEK oil for 3 weeks. The rats were then switched to the same diet containing 0.47% Ca for one week followed by two weeks on the same diet containing 0.02% Ca. Dose administration began during the last week on 0.02% calcium diet. Four consecutive intraperitoneal (ip) doses were given approximately 24 hours apart. Twenty-four hours after the last dose, blood was collected from the severed neck and the concentration of serum calcium determined by atomic absorption spectrometry as a measure of bone calcium mobilization. The first 10 cm of the intestine was also collected for intestinal calcium transport analysis using the everted gut sac method.

[5] = test system: intestinal calcium transport; assay: Intestinal calcium transport (everted gut sac) in vitamin D-deficient rats; type: in vivo, rat; settings: 4 consecutive ip doses, FIG. 8
Method: as §2

[6] = test system: 24-hydroxylase (24 Ohase) gene promoter in ROS 17/2.8 (bone) cells; assay: In vitro transcription assay (luciferase reporter); type: cell-based; settings: ROS 17/2.8 cells, 16 hours after dosing; FIG. 3; read-out: EC50, transcriptional activity in bone cells
Method: Transcription activity was measured in ROS 17/2.8 (bone) cells that were stably transfected with a 24-hydroxylase (24 Ohase) gene promoter upstream of a luciferase reporter gene (Arbour et al., 1998). Cells were given a range of doses. Sixteen hours after dosing the cells were harvested and luciferase activities were measured using a luminometer. RLU=relative luciferase units.

[7] = target: T1, full-length recombinant rat vitamin D receptor (Rattus norvegicus, UniProt P13053); assay: Vitamin D receptor binding, competition with [3H]-1,25(OH)2D3; settings: FIG. 1
T1 construct: Full-length recombinant rat receptor was expressed in E. coli; histidine tag (C); made in house; host or cells: E. coli BL21 (DE3) Codon Plus RIL
T1 sequence (P13053 1-423): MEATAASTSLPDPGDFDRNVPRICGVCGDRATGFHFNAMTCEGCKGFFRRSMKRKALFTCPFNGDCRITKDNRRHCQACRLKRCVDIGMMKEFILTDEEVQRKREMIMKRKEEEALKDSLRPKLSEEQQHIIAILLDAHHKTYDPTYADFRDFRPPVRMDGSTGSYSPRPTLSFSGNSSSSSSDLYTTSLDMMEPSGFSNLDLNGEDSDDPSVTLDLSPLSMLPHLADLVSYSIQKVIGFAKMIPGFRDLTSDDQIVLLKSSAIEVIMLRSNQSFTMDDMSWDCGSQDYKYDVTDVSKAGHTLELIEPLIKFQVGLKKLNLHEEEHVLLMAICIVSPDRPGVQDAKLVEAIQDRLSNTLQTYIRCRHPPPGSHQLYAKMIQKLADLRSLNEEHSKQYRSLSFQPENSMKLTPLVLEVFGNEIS
Method: Full-length recombinant rat receptor was expressed in E. coli BL21 (DE3) Codon Plus RIL cells and purified to homogeneity using two different column chromatography systems. The first system was a nickel affinity resin that utilizes the C-terminal histidine tag on this protein. The protein that was eluted from this resin was further purified using ion exchange chromatography (S-Sepharose Fast Flow). Aliquots of the purified protein were quick frozen in liquid nitrogen and stored at −80° C. until use. For use in binding assays, the protein was diluted in TEDK50 (50 mM Tris, 1.5 mM EDTA, pH7.4, 5 mM DTT, 150 mM KCl) with 0.1% Chaps detergent. The receptor protein and ligand concentration was optimized such that no more than 20% of the added radiolabeled ligand was bound to the receptor.
Radiolabeled and unlabeled ligands were added to 100 mcl of the diluted protein at a final ethanol concentration of ≦10%, mixed and incubated overnight on ice to reach binding equilibrium. The following day, 100 mcl of hydroxylapatite slurry (50%) was added to each tube and mixed at 10-minute intervals for 30 minutes. […] After the final wash, the pellets were transferred to scintillation vials containing 4 ml of Biosafe II scintillation cocktail, mixed and placed in a scintillation counter. Total binding was determined from the tubes containing only radiolabeled ligand.

[8] = Body weight of dosed animals; type: in vivo, rat; settings: various doses, throughout the test period; FIG. 9
Method: as §2

SMILES	cell viability of HL-60 leukemia cells (HL-60 leukemia cells [1])	EC50 (HL-60 leukemia cells [2]; four days after treatment, read-out: EC50, HL-60 cell differentiation) [nM]	cell viability of DU-145 prostate cells (DU-145 prostate cells)	cell viability of H-82 lung carcinoma cells [3]	bone calcium mobilization (serum calcium) ([4]; 780 pmol, 4 consecutive ip doses)	intestinal calcium transport activity ([5]; 780 pmol)	HL-60 cell differentiation activity (HL-60 leukemia cells [2])	EC50 [6] [nM]	Ki ([7]; full-length recombinant rat VDR) [nM]	times less active than 1α,25-dihydroxyvitamin D3 in VDR binding ([7]; relative to natural hormone) [times]	bone calcium mobilization (serum calcium) ([4]; 105,300 pmol/day ip for 4 consecutive days)	intestinal calcium transport activity ([5]; 35,100 pmol/rat)	change in body weight [8]
C=C1/C(=C\C=C2/CCC[C@]3(C)[C@@H]([C@H](C)CCCC(C)(C)O)CC[C@@H]23)C[C@@H](O)C[C@@H]1O [1,25(OH)2D3, 1α,25-dihydroxyvitamin D3, reference compound]	does not have any significant effect	2	neither AB-47 nor 1,25(OH)2D3 have any significant effect	does not have any significant effect	significant increases in serum calcium	significant increase in activity	–	–	–	–	–	–	–
C=C1CC[C@H](O)C/C1=C/C=C1\CCC[C@]2(C)[C@@H]([C@H](C)COC(=O)CBr)CC[C@@H]12 [AB-47, 22-bromoacetoxy-homopregnacalciferol]	kills HL-60 leukemia cells	–	neither AB-47 nor 1,25(OH)2D3 have any significant effect	kills H-82 lung carcinoma cells	–	–	does not promote HL60 differentiation	> 1000	3	100	little or no mobilization of bone calcium	little to no activity	substantially maintain their body weight
